The record followed here is patent US9133439B2, “Differentiation of human embryonic stem cells” (Janssen Biotech, Inc., priority 2009, dated 2015).

In this assay the test system is H1 human embryonic stem cells (differentiated). Format: cell-based. The conditions noted are these: ratio for well treated with individual compound relative to average of wells with DMSO alone.

As to `N#C/C(=C\c1ccc(O)c(O)c1)C(=O)Nc1ccccc1` [AG-494], the “Total Nuclei” value is reported as 1.10.

Consider `O=C(O)c1cc(NCc2cc(O)ccc2O)ccc1O` [HDBA, 2-Hydroxy-5-(2,5-dihydroxybenzylamino)benzoic acid], for which the “Total Nuclei” value is given as 0.99.

Regarding `N#C/C(=C\c1cc(Cl)cc(Cl)c1)c1cccnc1` [RG-14620], the “Total Nuclei” value is listed as 1.02.

Take `O=c1cc(-c2ccc(O)cc2)oc2cc(O)cc(O)c12` [Apigenin]: the “Total Nuclei” value was found to be 1.05.

On to `CC(=O)c1c(O)c(C)c(O)c(Cc2c(O)c3c(c(C(=O)/C=C/c4ccccc4)c2O)OC(C)(C)C=C3)c1O` [Rottlerin], for which the “Total Nuclei” value came out at 0.24.

Consider `COc1cc2ncnc(Nc3cccc(Cl)c3)c2cc1OC` [Tyrphostin AG 1478], for which the “Total Nuclei” value came to 1.10.

As to `CC[C@H](CO)Nc1nc(NCc2ccccc2)c2ncn(C(C)C)c2n1` [Roscovitine], the “Total Nuclei” value was 1.03.

As to `Nc1ncnc2c1c(I)cn2[C@@H]1O[C@H](CO)[C@@H](O)[C@H]1O` [5-Iodotubercidin], the “Total Nuclei” value is recorded as 0.08.

Turning to `N#CC(C#N)=Cc1cc(O)c(O)c(O)c1` [Tyrphostin 25], the “Total Nuclei” value is 1.02.

With `CCCCCCCCCCCCC/C=C/[C@@H](O)[C@@H](N)CO` [Sphingosine], the “Total Nuclei” value worked out at 1.04.

Consider `Cn1cnc2nc(NCCO)nc(NCc3ccccc3)c21` [iso-Olomoucine], for which the “Total Nuclei” value is listed as 1.04.

With `O=C(O)c1ccc2nc(-c3ccccc3)c(-c3ccccc3)nc2c1` [BML-257], the “Total Nuclei” value stood at 0.98.

For `Nc1ncc2[nH]cnc2n1` [2-Aminopurine], the “Total Nuclei” value was determined as 1.07.

`N#CC(C#N)=Cc1ccc(O)c(O)c1` [Tyrphostin 23]: the “Total Nuclei” value is recorded as 1.03.

`N#CC(=Cc1ccc2[nH]ccc2c1)C(N)=C(C#N)C#N` [AG-370]: the “Total Nuclei” value was 1.01.

As to `COc1cc(/C=C(\C#N)C(N)=O)cc(CSc2nc3ccccc3s2)c1O` [AG-825], the “Total Nuclei” value was determined as 1.05.

Take `CC(C)(C)c1cc(C=C(C#N)C#N)cc(C(C)(C)C)c1O` [Tyrphostin 9]: the “Total Nuclei” value is 0.28.

Turning to `O=P(O)(O)C(O)c1ccc2ccccc2c1` (centres unmarked) [HNMPA, Hydroxy-2-naphthalenylmethylphosphonic acid], the “Total Nuclei” value is recorded as 1.01.

`Cc1ccc(NC(=O)c2cccc(N(C)C)c2)cc1NC(=O)c1ccc(O)cc1` [ZM 336372]: the “Total Nuclei” value is listed as 1.06.

With `C=CC(=O)c1ccc2ccccc2c1` [ZM 449829], the “Total Nuclei” value came out at 1.01.

Turning to `O.O.O=c1c(O)c(-c2ccc(O)c(O)c2)oc2cc(O)cc(O)c12` [Quercetin dihydrate], the “Total Nuclei” value turned out to be 0.97.

On to `O=C1Nc2ccccc2/C1=C1/Nc2ccccc2C1=O` [Indirubin], for which the “Total Nuclei” value came out at 1.01.

Turning to `CC(C)n1cnc2c(NCc3ccccc3)nc(NCCO)nc21` [N9-Isopropyl-olomoucine], the “Total Nuclei” value was 1.05.

As for `CC1=C(O)C(=O)[C@@H]2O[C@@H]2C1=O` [Terreic acid], the “Total Nuclei” value is reported as 1.02.

`N#C/C(=C\c1ccc(O)c(O)c1)C(N)=O` [Tyrphostin 46]: the “Total Nuclei” value is on record as 1.05.

Turning to `O=C(O)c1cc(N(Cc2ccccc2O)Cc2cc(O)ccc2O)ccc1O` [Lavendustin A], the “Total Nuclei” value was 1.02.

For the compound `CCCCCCCCCCCCCCCC(=O)OC(CC(=O)O)C[N+](C)(C)C.[Cl-]` (racemic) [Palmitoyl-DL-carnitine Cl], the “Total Nuclei” value is reported as 1.05.

Regarding `Cc1ccc(S(=O)(=O)/C=C/C#N)cc1` [BAY 11-7082], the “Total Nuclei” value was 0.93.

On to Indirubin-3′-monoxime, for which the “Total Nuclei” value is given as 0.96.

As for `Oc1cc(O)cc(/C=C/c2ccc(O)c(O)c2)c1` [Piceatannol], the “Total Nuclei” value amounted to 1.07.

Take `CN(C)c1ccc(C=C2C(=O)Nc3ccccc32)cc1` [SU 4312]: the “Total Nuclei” value is on record as 1.07.

Consider `COc1cc2ncc(-c3ccccc3)nc2cc1OC` [AG-1296], for which the “Total Nuclei” value stood at 1.09.
